Measurements from paper PMC5444695, “CM363, a novel naphthoquinone derivative which acts as multikinase modulator and overcomes imatinib resistance in chronic myelogenous leukemia” (Oncotarget, 2016).
Structures can show the parent of a compound that is named as a salt.

How the values were obtained:
K562 cells = experiment: Live-cell imaging (IncuCyte HD) of proliferation and cytotoxicity, K562 cells; assay type: cell-based, human; settings: Homo sapiens, 96 h; IM sensitive K562, continuous exposure over 4-day period, area under curve; read-out: IC50AUC, cytostatic effect on cell growth
Experimental: Kinetic measurements of cell proliferation and cytotoxicity were carried out by using the IncuCyte^TM HD real time imaging system (Essen BioScience, Hertfordshire, United Kingdom). After seeding in a polylysine-coated 96 well-plates, K562 cells were treated with different concentrations of compound. This IncuCyte™ microscope permits the acquisition of automated phase contrast images. Individual images are processed by an imbedded contrast-based confluence algorithm, which compute monolayer confluence for each image and at each time point. Multiple images are collected per well and averaged to provide a representative statistical measure of confluence.

pTyr694-Stat5 (pYStat5) = experiment: Immunoblotting of constitutive pYStat5 in K562 cells; assay type: cell-based; settings: Homo sapiens; K562, 0.05 μM IM, 3 h
Experimental: Then, cells were rinsed with cold PBS-vanadate (1 mM) followed by preparation of whole lysis extract with RIPA (Pierce, Illinois, USA). Equal amounts of each sample were separated by SDS-PAGE and transfered onto nitrocellulose membranes. After being blocked with 1% BSA-1% Blotto (anti-phospho-antibodies) (Santa Cruz Biotechnology, CA, USA) or 5% blotto (anti-total-antibodies) (Santa Cruz Biotechnology, CA, USA) (both diluted in Tris buffered saline with 0.05% Tween 20), membranes were immunoblotted overnight at 4°C with dilution (1:1000) in the same buffer of blocking of primary phosphoprotein or total protein antibodies. […] To control for differences in loading and transfer efficiency across membranes, membranes were incubated with a monoclonal mouse anti-beta actin antibody (Santa Cruz Biotechnology, CA, USA). The phosphoprotein array analysis of K562 cells was carried out by using the Profiler Human Phospho-Kinase Array Kit ARY003B (R&D Systems, Minneapolis, MN, USA) according to the manufacturer`s instructions.

What does the source list for Cc1ccc(NC(=O)c2ccc(CN3CCN(C)CC3)cc2)cc1Nc1nccc(-c2cccnc2)n1 [IM, imatinib mesylate, reference compound]?
IC50 (K562 cells): 200 ± 100 nM; inhibition at 0.05 µM (pTyr694-Stat5 (pYStat5)): 40%
